{"source": "paper PMC8804135", "about": "(Neurotherapeutics, 2021)", "key": {"GAL3R": {"biological_target": "T1, GAL3R (Homo sapiens, UniProt O60755)", "T1 sequence (O60755 1-368)": "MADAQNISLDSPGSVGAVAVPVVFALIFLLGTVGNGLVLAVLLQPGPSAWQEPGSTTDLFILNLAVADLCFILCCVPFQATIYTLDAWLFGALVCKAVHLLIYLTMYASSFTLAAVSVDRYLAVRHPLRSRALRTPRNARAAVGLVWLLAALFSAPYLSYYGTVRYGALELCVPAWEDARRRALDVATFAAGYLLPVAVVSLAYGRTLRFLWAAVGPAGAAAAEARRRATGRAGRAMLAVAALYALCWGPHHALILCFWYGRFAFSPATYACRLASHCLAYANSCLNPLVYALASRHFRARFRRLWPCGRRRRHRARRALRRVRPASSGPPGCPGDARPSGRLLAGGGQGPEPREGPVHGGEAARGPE", "experiment": "SRE luciferase reporter assay, GAL3R-transfected HEK293 Gqi cells", "details": "transiently transfected HEK293 Gqi cells; up to 10 µM, 5 h"}, "GAL1R [1]": {"biological_target": "T2, GAL1R (Homo sapiens, UniProt P47211)", "T2 sequence (P47211 1-349)": "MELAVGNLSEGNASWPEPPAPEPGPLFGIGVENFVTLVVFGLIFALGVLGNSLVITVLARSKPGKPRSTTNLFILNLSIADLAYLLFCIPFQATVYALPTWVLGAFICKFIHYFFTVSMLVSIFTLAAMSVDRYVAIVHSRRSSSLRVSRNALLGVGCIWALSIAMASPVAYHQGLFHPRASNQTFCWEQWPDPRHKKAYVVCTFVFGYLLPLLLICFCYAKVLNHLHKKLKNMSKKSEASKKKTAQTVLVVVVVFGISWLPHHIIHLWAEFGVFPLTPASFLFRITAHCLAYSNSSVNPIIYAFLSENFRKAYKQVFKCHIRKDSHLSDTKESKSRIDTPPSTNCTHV", "experiment": "PathHunter eXpress β-arrestin recruitment assay, GAL1R", "assay_type": "cell-based", "design": "expressed in transfected cells", "details": "Table 3; CHO-K1 cells co-expressing GAL1R and β-arrestin 2; 10 µM to 5 nM; (average) ratio, (n) in cell = number of assays; NA = ratio above 1000", "method": "To evaluate the ability of lanthipeptides to recruit ß-arrestins via GAL1R or via GAL2R, we used the PathHunter® eXpress GAL1R, CHO-K1, β-arrestin GPCR Assay and the PathHunter® eXpress GAL2R, CHO-K1, β-arrestin, GPCR Assay from Eurofins-DiscoverX. The assays were performed according to the manufacturer’s instructions. Briefly, for one assay, CHO-K1 cells co-expressing GAL1R or GAL2R and β-arrestin (isoform 2) were diluted in AssayComplete™ Cell Plating Reagent, and 100 µl was seeded into each well of a 96-well plate. The plate was incubated at 37 °C, 5% CO2 in a humidified incubator. A serial 3 × dilution of the lanthipeptides in water was made (10 µM to 5 nM). After 48 h of incubation, 10 µl of the serial dilutions was applied to the cells in duplicate. The agonists were incubated for 90 min at 37 °C. Next, 55 µL of Working Detection Solution was added, and after 1 h of incubation at room temperature in the dark, the chemiluminescent signal was read with a Synergy HT Biotek reader."}, "GAL1R [2]": {"biological_target": "T2, GAL1R", "experiment": "SRE luciferase reporter assay, GAL1R-transfected HEK293 Gqi cells", "details": "transiently transfected HEK293 Gqi cells; up to 10 µM, 5 h"}, "GAL1R [3]": {"biological_target": "T2, GAL1R", "experiment": "cAMP Hunter eXpress GAL1R CHO-K1 GPCR assay (inhibition of forskolin-induced cAMP)", "assay_type": "cell-based", "design": "expressed in transfected cells", "details": "Table 3; CHO-K1 cells expressing GAL1R; 20 µM forskolin; 10 µM to 5 nM; (average) ratio, (n) in cell = number of assays; NA = ratio above 1000", "method": "To evaluate the ability of lanthipeptides to […] via GAL1R signaling, we used the cAMP Hunter™ eXpress GAL1R CHO-K1 GPCR Assay from Eurofins-DiscoverX. The assay was performed according to the manufacturer’s instructions. Briefly, for one assay, CHO-K1 cells expressing GAL1R were diluted in AssayComplete™ Cell Plating 2 Reagent, and 100 µl was seeded into each well of a 96-well plate. The plate was incubated at 37 °C, 5% CO2 in a humidified incubator. After 24 h of incubation, the media was aspirated, and 45 µl cell assay buffer/antibody mixture was added to all wells. […] Fifteen µl of the serial dilutions was applied in duplicates to the cells. The concentration of forskolin in the assay was 20 µM. The agonists were incubated for 30 min at 37 °C. Next, 15 µL Antibody Solution and 60 μL cAMP Working Detection Solution were added, and the plate was incubated for 1 h in the dark at room temperature. Finally, 60 μL cAMP Solution A was added and, after 3 h of incubation in the dark at room temperature, the chemiluminescent signal was read with a Synergy HT Biotek reader."}}, "note": "Numbered stars: 1 amine (or outer) side, 2 acyl side, 3 side chain; on linkers, the order of the positions; unused ones are H or OH. Bridge positions count the residues as written; N and C are the ends. Square brackets hold non-standard residues; d marks the D form. Peptide text beside a SMILES is read from it. dAbu(3S-yl) = C[C@@H]([C@@H](N[*:1])C(=O)[*:2])[*:3]; pGlu = O=C1CC[C@@H](C(=O)O)N1"}
{"compound": "CC(C)C[C@H](NC(=O)[C@H](CC(C)C)NC(=O)[C@H](Cc1ccc(O)cc1)NC(=O)CNC(=O)[C@H](C)NC(=O)[C@H](C)NC(=O)[C@H](CC(N)=O)NC(=O)[C@H](CC(C)C)NC(=O)[C@H](CC(N)=O)NC(=O)[C@H](Cc1c[nH]c2ccccc12)NC(=O)[C@@H]1CCC(=O)N1)C(=O)N[C@@H](C)C(=O)N[C@H]1C(=O)N[C@@H](Cc2c[nH]cn2)C(=O)N[C@@H](C)C(=O)N[C@H](C(=O)NCC(=O)O)CS[C@H]1C", "note": "[Variant M89b, G1pE-T3N-S6A-G12A-methyllanthionine[13–16]-galanin-(1–17)] ([pGlu]WNLNAAGYLLA[dAbu(3S-yl)]HACG-OH; thioether 13-16; C-terminus assumed)", "values": [{"measurement": "Stimulation of GAL3R, luciferase reporter", "setting": "GAL3R", "result": "inability to stimulate"}, {"measurement": "EC50 ratios to Gal-(1-15), GAL1R ß-Arrestin", "setting": "GAL1R [1]", "result": "NA (3) (NA is not active; ratios above 1000 were considered to be not active)"}, {"measurement": "Stimulation of GAL1R, luciferase reporter", "setting": "GAL1R [2]", "result": "inability to stimulate"}, {"measurement": "EC50 ratios to Gal-(1-15), GAL1R cAMP", "setting": "GAL1R [3]", "result": "NA (3) (NA is not active; ratios above 1000 were considered to be not active)"}]}
